Experimental data from the NIST ThermoML archive (doi:10.1021/je900442b).

Key:
[1] = xn = mol fraction of the nth substance listed; conditions: 101 kPa, Liquid
[2] = 101 kPa, Liquid

CC(=O)OC(C)(C)C [1,1-dimethylethyl ethanoate] + CO
[1]
Conditions	mass density, 298.15 K [kg/m3]	mass density, 303.15 K [kg/m3]	mass density, 308.15 K [kg/m3]	mass density, 313.15 K [kg/m3]	speed of sound, 298.15 K [m/s]	speed of sound, 303.15 K [m/s]	speed of sound, 308.15 K [m/s]	speed of sound, 313.15 K [m/s]
x1 = 0.1004	806.42	801.36	796.06	791.34	1107	1090	1069	1055
x1 = 0.1997	819.95	814.66	809.27	804.29	1105	1089	1065	1052
x1 = 0.2996	829.79	824.37	818.91	813.75	1105	1089	1063	1051
x1 = 0.3916	836.73	831.21	825.7	820.41	1104	1088	1061	1049
x1 = 0.5003	843.12	837.52	831.98	826.57	1103	1087	1059	1048
x1 = 0.5988	847.72	842.05	836.48	831	1102	1086	1057	1046
x1 = 0.6994	851.57	845.85	840.26	834.72	1100	1085	1055	1045
x1 = 0.7985	854.72	848.96	843.36	837.77	1097	1083	1053	1043
x1 = 0.8992	857.43	851.65	846.04	840.4	1094	1080	1051	1041
x1 = 1	859.75	853.94	848.34	842.67	1091	1078	1049	1040

CO [methanol] + CC(=O)OC(C)(C)C
[1], x2 = 0
Conditions	mass density [kg/m3]	speed of sound [m/s]
298.15 K	786.38	1109
303.15 K	781.65	1092
308.15 K	776.52	1074
313.15 K	772.15	1060

CO [methanol]
[2]
Conditions	mass density [kg/m3]	speed of sound [m/s]
298.15 K	786.38	1109
303.15 K	781.65	1092
308.15 K	776.52	1074
313.15 K	772.15	1060
